Measured values: US12466813B2, “PRC1 inhibitors and methods of treatment therewith” (The Regents of the University of Michigan, priority 2018, dated 2025)

The compounds below were run against T1, RING1B-BMI1 (Homo sapiens, UniProt Q99496) (assay: KD classes of Table A (direct binding to Ring1B-Bmi1)). Settings: class given in Table A.
T1 sequence (Q99496 1-336): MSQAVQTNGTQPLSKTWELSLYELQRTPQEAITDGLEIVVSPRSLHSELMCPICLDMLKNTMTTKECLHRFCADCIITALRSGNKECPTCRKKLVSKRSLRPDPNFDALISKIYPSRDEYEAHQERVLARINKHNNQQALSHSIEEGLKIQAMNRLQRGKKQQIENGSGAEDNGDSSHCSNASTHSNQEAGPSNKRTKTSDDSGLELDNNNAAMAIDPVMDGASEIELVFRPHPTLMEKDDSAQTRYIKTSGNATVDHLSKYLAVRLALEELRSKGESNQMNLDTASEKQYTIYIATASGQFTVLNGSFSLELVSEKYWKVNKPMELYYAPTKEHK
T1 sequence (P35226 1-326 partner): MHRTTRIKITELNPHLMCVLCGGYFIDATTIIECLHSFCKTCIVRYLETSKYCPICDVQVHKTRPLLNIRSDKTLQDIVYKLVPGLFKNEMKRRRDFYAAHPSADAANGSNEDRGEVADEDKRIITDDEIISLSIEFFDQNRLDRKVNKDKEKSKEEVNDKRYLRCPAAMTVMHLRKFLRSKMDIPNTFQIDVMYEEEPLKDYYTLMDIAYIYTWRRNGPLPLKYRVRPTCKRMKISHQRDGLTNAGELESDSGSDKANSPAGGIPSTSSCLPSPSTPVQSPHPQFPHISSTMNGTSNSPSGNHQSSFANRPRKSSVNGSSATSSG

Row | SMILES | Kd [µM]
1 | CCOC(=O)c1[nH]c(-c2c(OC)cccc2OC)c(CC)c1-c1ccc(OC)cc1Cl [compound 164] | > 100
2 | CCc1c(-c2cccc3[nH]ccc23)[nH]c(C(=O)O)c1-c1ccc(N)cc1 [compound 105] | > 100
3 | Cc1cc(C(=O)O)[nH]c1-c1cccc2c1ccn2C [compound 116] | > 100
4 | COc1ccccc1-c1ccc(C(=O)O)[nH]1 [compound 142] | > 100
5 | CCc1c(-c2cccc3[nH]ccc23)[nH]c(C(=O)O)c1-c1ccc(O)cc1Cl [compound 92] | 50 to 100
6 | CCc1c(-c2cccc3[nH]ccc23)[nH]c(C(=O)O)c1-c1cnccc1Cl [compound 94] | 50 to 100
7 | CCc1c(-c2cccc3[nH]ccc23)[nH]c(C(=O)O)c1-c1cc(N)ccc1Cl [compound 80] | 20 to 50
8 | O=C(O)c1ccc(-c2cccc(Oc3ccccc3)c2)[nH]1 [compound 139] | > 100
9 | Nc1ccccc1-c1ccc(C(=O)O)[nH]1 [compound 147] | > 100
10 | O=C(O)c1ccc(-c2cccc(OCC3CC3)c2)[nH]1 [compound 131] | > 100
11 | Cc1ccc(-c2ccc(C(=O)O)[nH]2)cc1 [compound 151] | > 100
12 | O=C(O)c1ccc(-c2cccc3[nH]ncc23)[nH]1 [compound 126] | > 100
13 | CCc1c(-c2cccc3[nH]ccc23)[nH]c(C(=O)O)c1-c1cccc(Cl)c1Cl [compound 84] | 20 to 50
14 | O=C(O)c1ccc(-c2ccccc2O)[nH]1 [compound 130] | > 100
15 | O=C(O)c1ccc(-c2cccc3ncccc23)[nH]1 [compound 160] | > 100
16 | CC(C)c1c(-c2cc(F)cc3[nH]ccc23)[nH]c(C(=O)O)c1-c1cc(OC(F)(F)F)cc2[nH]ccc12 [compound 48] | < 20
17 | O=C(O)c1[nH]c(-c2cccc3[nH]ccc23)c2c1CCCC2 [compound 115] | > 100

Row | SMILES | Kd [µM]
18 | COc1cc(-c2c(C(=O)O)[nH]c(-c3cc(F)cc4[nH]ccc34)c2C(C)C)c2cc[nH]c2c1 [compound 39] | < 20
19 | Cc1c[nH]c2cccc(-c3[nH]c(C(=O)O)c(-c4c(Cl)ccc5[nH]ccc45)c3C(C)C)c12 [compound 26] | < 20
20 | CC(CF)c1c(-c2cccc3[nH]ccc23)[nH]c(C(=O)O)c1-c1cccc2[nH]ccc12 (stereo not shown) [compound 32] | < 20
21 | O=C(O)c1ccc(-c2ccccc2)[nH]1 [compound 144] | > 100
22 | CC(C)c1c(-c2cc(F)cc3[nH]ccc23)[nH]c(C(=O)O)c1-c1cccc2[nH]c(-c3cc[nH]n3)cc12 [compound 258] | < 20
23 | CCc1c(-c2cccc3[nH]ccc23)[nH]c(C(=O)O)c1-c1ccc([N+](=O)[O-])cc1 [compound 114] | > 100
24 | CC(C)c1c(-c2cccc3[nH]ccc23)[nH]c(C(=O)O)c1-c1ccccc1Cl [compound 17] | < 20
25 | CC(C)c1c(-c2cc(F)cc3[nH]ccc23)[nH]c(C(=O)O)c1-c1cc(C(=O)N2CCCC2)cc2[nH]ccc12 [compound 198] | < 20
26 | COc1ccc(-c2ccc(C(=O)O)[nH]2)cc1 [compound 157] | > 100
27 | CC(C)c1c(-c2cccc3c(N)c[nH]c23)[nH]c(C(=O)O)c1-c1cccc2[nH]ccc12 [compound 223] | < 20
28 | CC(C)c1c(-c2ccc3cc[nH]c3c2)[nH]c(C(=O)O)c1-c1c(Cl)ccc2[nH]ccc12 [compound 182, 3-(5-chloro-1H-indol-4-yl)-5-(1H-indol-6-yl)-4-isopropyl-1H-pyrrole-2-carboxylic acid] | < 20
29 | COc1cc(Cl)c(-c2c(C(=O)O)[nH]c(-c3cccc4[nH]ccc34)c2C(C)C)cc1[N+](=O)[O-] [compound 3] | < 20
30 | CC(C)c1c(-c2cc(F)cc3[nH]ccc23)[nH]c(C(=O)O)c1-c1cc(OC2CCCC2)cc2[nH]ccc12 [compound 234] | < 20
31 | COc1ccc(-c2c(C(=O)O)[nH]c(-c3cc(F)cc4[nH]ccc34)c2C(C)C)c2cc[nH]c12 [compound 37] | < 20
32 | O=C(O)c1ccc(-c2ccccc2Oc2ccccc2)[nH]1 [compound 136] | > 100
33 | CCc1c(C(=O)O)[nH]c(-c2cccc3[nH]ccc23)c1CC [compound 112] | > 100
34 | CCc1c(-c2cccc3[nH]ccc23)[nH]c(C(=O)O)c1Cc1ccccc1 [compound 79] | 20 to 50

Further lines, results first:

Row | Kd [µM] | SMILES
35 | < 20 | COc1ccc(-c2c(C(=O)O)[nH]c(-c3cc(F)cc4[nH]ccc34)c2C(C)C)c(C)c1 [compound 59]
36 | < 20 | COc1cc(-c2c(C(=O)O)[nH]c(-c3cc(F)cc4[nH]ccc34)c2C(C)C)c2cc(C(=O)O)[nH]c2c1 [compound 50]
37 | < 20 | CC(C)c1c(-c2cc(F)cc3[nH]ccc23)[nH]c(C(=O)O)c1-c1ccc(Oc2nccs2)cc1 [compound 62]
38 | < 20 | CC(C)c1c(-c2cc(F)cc3[nH]ccc23)[nH]c(C(=O)O)c1-c1c(F)cnc2[nH]ccc12 [compound 246]
39 | < 20 | CC(C)c1c(-c2cc(F)cc3[nH]ccc23)[nH]c(C(=O)O)c1-c1ccc(Oc2ccncc2)cc1 [compound 63]
40 | < 20 | COc1cc(-c2c(C(=O)O)[nH]c(-c3cc(F)cc4[nH]ccc34)c2C(C)C)c2cc(CO)[nH]c2c1 [compound 192]
41 | < 20 | CC(C)c1c(-c2cc(F)cc3[nH]ccc23)[nH]c(C(=O)O)c1-c1c[nH]c2ccccc12 [compound 203, 5-(6-fluoro-1H-indol-4-yl)-3-(1H-indol-3-yl)-4-isopropyl-1H-pyrrole-2-carboxylic acid]
42 | < 20 | CC(C)c1c(-c2cc(F)cc3[nH]ccc23)[nH]c(C(=O)O)c1-c1cccc2[nH]c(-c3nccs3)cc12 [compound 224]
43 | < 20 | C#CCCCCC(=O)NCCCCCC(=O)NCCc1c[nH]c2cc(F)cc(-c3[nH]c(C(=O)O)c(-c4c(Cl)ccc5[nH]ccc45)c3C(C)C)c12 [compound 68]
44 | < 20 | CC(C)c1c(-c2cc(F)cc3[nH]ccc23)[nH]c(C(=O)O)c1-c1cccc2[nH]ccc12 [compound 35]
45 | < 20 | COc1ccc(-c2c(C(=O)O)[nH]c(-c3cc(F)cc4[nH]ccc34)c2C(C)C)c(Cl)c1 [compound 56]
46 | < 20 | Cc1cc2c(-c3c(C(=O)O)[nH]c(-c4cc(F)cc5[nH]ccc45)c3C(C)C)ccnc2[nH]1 [compound 207]
47 | < 20 | CC(C)c1c(-c2cc(O)cc3[nH]ccc23)[nH]c(C(=O)O)c1-c1c(Cl)ccc2[nH]ccc12 [compound 12]
48 | < 20 | CC(C)c1c(-c2cccc3[nH]ccc23)[nH]c(C(=O)O)c1-c1cccc2[nH]ccc12 [compound 33]
49 | < 20 | CC(C)c1c(-c2cc(F)cc3[nH]ccc23)[nH]c(C(=O)O)c1-c1cccc2c1ccn2CCNS(C)(=O)=O [compound 265]
50 | < 20 | CC(CO)c1c(-c2cccc3[nH]ccc23)[nH]c(C(=O)O)c1-c1cccc2[nH]ccc12 (stereo not shown) [compound 31]
51 | < 20 | CC(C)c1c(-c2cc(F)cc3[nH]ccc23)[nH]c(C(=O)O)c1-c1cccc2[nH]c(-c3ccccc3)cc12 [compound 259]

Row | Kd [µM] | SMILES
52 | < 20 | CCCC(=O)NCCn1ccc2c(-c3c(C(=O)O)[nH]c(-c4cc(F)cc5[nH]ccc45)c3C(C)C)cc(OC)cc21 [compound 180]
53 | < 20 | CC(C)c1c(-c2cccc3[nH]ccc23)cn(CC(=O)O)c1-c1cccc2[nH]ccc12 [compound 76]
54 | < 20 | CCC(C)c1c(-c2cc(F)cc3[nH]ccc23)[nH]c(C(=O)O)c1-c1cc(OC)cc2[nH]c(CO)cc12 (stereo not shown) [compound 195]
55 | < 20 | CC(C)c1c(-c2cc(F)cc3[nH]ccc23)[nH]c(CS(N)(=O)=O)c1-c1cccc2[nH]ccc12 [compound 219]
56 | < 20 | CCOc1ccc(-c2c(C(=O)O)[nH]c(-c3cccc4[nH]ccc34)c2CC)c(Cl)c1 [compound 23]
57 | < 20 | C#CCOCCOCCOCCC(=O)NCCc1c[nH]c2cc(F)cc(-c3[nH]c(C(=O)O)c(-c4c(Cl)ccc5[nH]ccc45)c3C(C)C)c12 [compound 69]
58 | < 20 | CC(C)c1c(-c2cc(F)cc3[nH]ccc23)[nH]c(C(=O)O)c1-c1ccnc2[nH]c(-c3ccsc3)cc12 [compound 250]
59 | < 20 | COc1cc(Cl)c(-c2c(C(=O)O)[nH]c(-c3cccc4[nH]ccc34)c2C(C)C)cc1N [compound 5]
60 | < 20 | CC(C)c1c(-c2cc(F)cc3[nH]ccc23)[nH]c(C(=O)O)c1-c1cc(Cl)cc2[nH]ccc12 [compound 41]
61 | < 20 | CCn1c(C(=O)O)c(-c2cc(OC)cc3[nH]ccc23)c(C(C)C)c1-c1cc(F)cc2[nH]ccc12 [compound 71]
62 | < 20 | CC(C)c1c(-c2cc(F)cc3[nH]ccc23)[nH]c(C(=O)O)c1-c1cccc2[nH]c3c(c12)CCC3 [compound 212]
63 | < 20 | COc1cc(-c2c(C(=O)O)[nH]c(-c3cc(F)cc4[nH]ccc34)c2C(C)C)c2c(C)c[nH]c2c1 [compound 183]
64 | < 20 | CC(C)c1c(-c2cc(F)cc3[nH]ccc23)[nH]c(C(=O)O)c1-c1cccc2c1ccn2CCS(N)(=O)=O [compound 266]
65 | < 20 | CC(C)c1c(-c2cc(F)cc3[nH]ccc23)[nH]c(C(=O)O)c1-c1cccc2c1ccn2CCS(C)(=O)=O [compound 267]
66 | < 20 | CC(C)c1c(-c2cc(F)cc3[nH]ccc23)[nH]c(C(=O)O)c1-c1cc(C(F)(F)F)cc2c1ccn2CC(=O)O [compound 54]
67 | < 20 | C#CCCCCC(=O)NCCc1c[nH]c2cc(F)cc(-c3[nH]c(C(=O)O)c(-c4c(Cl)ccc5[nH]ccc45)c3C(C)C)c12 [compound 67]
